Experimental data taken from patent US10004730B2, “Small molecules targeting androgen receptor nuclear localization and/or level in prostate cancer” (University of Pittsburgh-Of the Commonwealth System of …, priority 2011, dated 2018).

Columns and labels:
endogenous AR [1] = experiment: Endogenous AR nuclear localization in C4-2 cells by immunofluorescence; assay type: cell-based; details: 300 nM, hormone-free
Description: (§1) FIGS. 3A and 3B. […] FIG. 3A. […] Localization was assessed by fluorescence microscopy 4 hours after treatment. FIG. 3B.
(§2) FIGS. 6A, 6B, 6C and 6D. FIG. 6A. Structures of compounds SID 14730725 (3-(4-Ethoxy-phenyl)-6,7-dihydro-5H-pyrrolo[1,2-a]imidazole), SID 14742211 (3-(4-Chloro-phenyl)-6,7-dihydro-5H-pyrrolo[1,2-a]imidazole) and SID 3712502 (2-[(3,5-dimethyl-1,2-oxazol-4-yl)methylsulfanyl]-1-[4-(2,3-dimethylphenyl)piperazin-1-yl]ethanone). FIG. 6B. Effect of SID 14730725 and SID 3712502 at indicated concentrations (uM) on nuclear localization of AR in castration-resistant C4-2 prostate cancer cells cultured in complete RPMI media with 10% FBS. C4-2 cells were transfected with GFP-AR and subcellular localization of GFP-AR was determined after overnight treatment using fluorescent microscopy. FIG. 6C. Quantitative analysis of results in FIG. 6B. The percent of transfected cells displaying predominant nuclear localization of GFP-AR at in the presence of various concentrations of SID 14730725 and SID 3712502 were determined. FIG. 6D. SID 14730725 inhibited endogenous AR nuclear localization in C4-2 cells. Endogenous AR was detected by immunofluorescent staining using AR antibody N-20 (Santa Cruz Biotechnology). Nuclei were stained with Hoechst.
(§3) Hsp90 plays an important role in ligand-induced AR nuclear translocation. […]

GFP-AR [2] = target: T1, GFP-AR (Homo sapiens, UniProt P10275); experiment: Localization of transiently transfected GFP-AR by fluorescence microscopy; assay type: cell-based; details: for GFP-AR localization: 1 nM
T1 construct: expressed in transfected cells; also PC3 and LNCaP (transient)
T1 sequence (P10275 1-920): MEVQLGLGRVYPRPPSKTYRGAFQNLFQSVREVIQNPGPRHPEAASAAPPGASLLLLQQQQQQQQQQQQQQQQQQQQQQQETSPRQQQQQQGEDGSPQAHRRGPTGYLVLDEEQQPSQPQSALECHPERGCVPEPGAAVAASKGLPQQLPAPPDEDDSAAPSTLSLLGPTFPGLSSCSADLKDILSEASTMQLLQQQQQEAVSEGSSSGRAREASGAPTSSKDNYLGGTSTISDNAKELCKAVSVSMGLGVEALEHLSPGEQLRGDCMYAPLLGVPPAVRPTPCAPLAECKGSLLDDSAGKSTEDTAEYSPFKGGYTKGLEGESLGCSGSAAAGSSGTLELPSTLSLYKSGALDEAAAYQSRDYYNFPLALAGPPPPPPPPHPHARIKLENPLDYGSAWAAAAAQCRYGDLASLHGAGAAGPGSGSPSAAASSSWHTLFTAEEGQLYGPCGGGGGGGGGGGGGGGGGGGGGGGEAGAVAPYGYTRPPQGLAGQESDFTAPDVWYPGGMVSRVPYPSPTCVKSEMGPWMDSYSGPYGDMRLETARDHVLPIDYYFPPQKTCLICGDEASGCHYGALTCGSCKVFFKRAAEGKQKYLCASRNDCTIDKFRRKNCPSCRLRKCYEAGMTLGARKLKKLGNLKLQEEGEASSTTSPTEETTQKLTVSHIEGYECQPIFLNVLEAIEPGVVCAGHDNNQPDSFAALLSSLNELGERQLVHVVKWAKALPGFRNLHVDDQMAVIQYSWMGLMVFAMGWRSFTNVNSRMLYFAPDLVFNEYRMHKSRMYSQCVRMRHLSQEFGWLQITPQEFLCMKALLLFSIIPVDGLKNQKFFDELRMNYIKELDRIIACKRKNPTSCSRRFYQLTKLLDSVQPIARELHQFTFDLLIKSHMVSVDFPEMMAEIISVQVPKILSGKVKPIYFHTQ
Description: FIGS. 2A and 2B. Localization of GFP-AR in AR-negative PC3, androgen-sensitive LNCaP, and CRPC C4-2 cells. […] PC3, LNCaP, and C4-2 cells were transfected with GFP-AR and localization was assessed in ligand-free conditions or in the presence of mibolerone by fluorescence microscopy within 24 hours of transfection. The results in FIG. 2B are from five transfections for each cell line in the absence of androgen. At least 50 cells were counted after each transfection. Error bars represent ±SEM.
as §1
FIGS. 6A, 6B, 6C and 6D. FIG. 6A. […] FIG. 6B. […] C4-2 cells were transfected with GFP-AR and subcellular localization of GFP-AR was determined after overnight treatment using fluorescent microscopy. FIG. 6C. Quantitative analysis of results in FIG. 6B. […] FIG. 6D. […] Endogenous AR was detected by immunofluorescent staining using AR antibody N-20 (Santa Cruz Biotechnology). Nuclei were stained with Hoechst.
A prerequisite for AR transcriptional activity is its nuclear localization. To determine whether the subcellular localization of AR was altered during the progression to castration-resistance, AR-negative PC3 prostate cancer cells, androgen-sensitive LNCaP cells and castration-resistant C4-2 cells were transfected with AR tagged to green fluorescent protein (GFP) and localization was assessed by fluorescence microscopy in hormone-free conditions.
Hsp90 plays an important role in ligand-induced AR nuclear translocation. […] To determine if the effect of hsp90 inhibition on endogenous AR in C4-2 cells was similar to its effect on transfected GFP-AR, immunofluorescence experiments were performed.

[3] = tested on: castration resistant C4-2 xenograft tumors; experiment: C4-2 xenograft tumors in castrated SCID mice; assay type: in vivo
Description: FIGS. 9A and 9B. FIG. 9A. SID 14730725 inhibits the growth of castration resistant C4-2 xenograft tumors. C4-2 tumors were established by sc injection of 1×10^6 cells resuspended in 0.25 ml RPMI complete media mixed with 0.25 ml of Matrigel into young adult male SCID mice. SCID mice were castrated and randomized when C4-2 tumor volume reach ˜200 ul. Mice received s.c. delivery of SID 14730725 (50 mg/Kg body weight) or vehicle control (corn oil) every other day for 2 weeks, beginning 4 days after castration. Each group consisted of 7 mice. Tumor volumes were measured using micro-calipers and calculated using the formula (length×width^2)/2. FIG. 9B. Body weight of animals was measured every other day. Bars represent the mean±SEM; **p<0.01; Red lines represent data from the animals treated with SID 14730725.

GFP-GR = target: T2, GFP-GR (Homo sapiens, UniProt P04150); experiment: GFP-GR nuclear localization in transfected C4-2 cells; assay type: cell-based; details: co-treated with 0.5 μM Dexamethasone, 24 hours
T2 construct: expressed in transfected cells; host or cells: C4-2
Description: (§4) FIG. 7. The effect of SID 14730725 and SID 3712502 on nuclear localization of GFP-ER (Top panel) and GFP-GR (Bottom panel) in C4-2 cells. C4-2 cells were transfected with GFP-ER or GFP-GR overnight. The following day the cells were treated with different concentrations (uM) of the small molecules. The cells transfected with GFP-GR were co-treated with 0.5 μM Dexamethasone. Cells were imaged 24 hours after the treatment with the small molecules.

C4-2 cells = experiment: Cell survival, crystal violet staining, C4-2; assay type: cell-based; details: 48 hrs
Description: (§5) FIGS. 8A and 8B. Effect of SID 14730725 and SID 3712502 on survival of PC3 (FIG. 8A) and C4-2 cells (FIG. 8B). PC3 or C4-2 cells were plated in 12-well plates at 2,500 cell per well in RPMI 1640 complete medium. After 24 hrs, the cells were treated with SID 14730725 or SID 3712502 at the indicated concentrations for 48 hrs. The wells were washed with PBS thrice and fixed in 0.5% crystal Violet in methanol. C=control; treated with vehicle DMSO.

GFP-ER = target: T3, GFP-ER (Homo sapiens, UniProt P03372); experiment: GFP-ER nuclear localization in transfected C4-2 cells; assay type: cell-based; details: 24 hours
T3 construct: expressed in transfected cells; host or cells: C4-2
Description: as §4

endogenous AR [4] = target: T4, endogenous AR (Homo sapiens, UniProt P10275, T878A); experiment: Endogenous AR nuclear localization in C4-2 cells by immunofluorescence; assay type: cell-based; details: AR antibody N-20
T4 construct: endogenous in cells; host or cells: C4-2
Description: as §1, §2, §3

PC3 cells = experiment: Cell survival, crystal violet staining, PC3; assay type: cell-based; details: 48 hrs
Description: as §5

GFP-AR [5] = target: T1, GFP-AR; experiment: GFP-AR localization in stably transfected C4-2-GFP-AR sublines / high throughput screen assay; assay type: cell-based; details: 5 uM, 24 hours; C4-2 stably transfected with GFP-AR; charcoal-stripped FBS medium
Description: The images were acquired 24 hours after the treatment of docetaxel at 5 uM or vehicle DMSO. C4-2 cells stably transfected with GFP-AR were changed to phenol red-free RPMI with 10% charcoal-stripped FBS medium before the addition of docetaxel. Nuclei of the cells were stained with Hoechst dye. Images were acquired by fluorescent microscopy.
Localization of GFP-AR signal was assessed by fluorescence microscopy overnight after treatment.
The C4-2-GFP-AR subclone was cultured in 384-well plates in complete RPMI media. We used regular complete media in high throughput assay because it contains castration levels of androgens. […] Images of GFP signals and Hoechst signals were acquired into separate channels on a Cellomics ArrayScan® V^TI system. Both nuclear and cytoplasmic GFP signals were quantified with the ArrayScan V^TI, which uses an image-based auto-focus system, and has the capability of imaging up to six excitation and emission channels. […] The Cellomics compartmental analysis algorithm was used to quantify the relative distribution of the GFP-AR between nuclear and cytoplasmic cellular compartments. […] The mask was eroded to reduce cytoplasmic contamination within the nuclear area, and the reduced mask was used to quantify the amount of target channel GFP fluorescence within the nucleus. […]

AR = AR (Homo sapiens, UniProt P10275); details: reported in earlier studies; cited from earlier work

T4 sequence (P10275 whole entry T878A): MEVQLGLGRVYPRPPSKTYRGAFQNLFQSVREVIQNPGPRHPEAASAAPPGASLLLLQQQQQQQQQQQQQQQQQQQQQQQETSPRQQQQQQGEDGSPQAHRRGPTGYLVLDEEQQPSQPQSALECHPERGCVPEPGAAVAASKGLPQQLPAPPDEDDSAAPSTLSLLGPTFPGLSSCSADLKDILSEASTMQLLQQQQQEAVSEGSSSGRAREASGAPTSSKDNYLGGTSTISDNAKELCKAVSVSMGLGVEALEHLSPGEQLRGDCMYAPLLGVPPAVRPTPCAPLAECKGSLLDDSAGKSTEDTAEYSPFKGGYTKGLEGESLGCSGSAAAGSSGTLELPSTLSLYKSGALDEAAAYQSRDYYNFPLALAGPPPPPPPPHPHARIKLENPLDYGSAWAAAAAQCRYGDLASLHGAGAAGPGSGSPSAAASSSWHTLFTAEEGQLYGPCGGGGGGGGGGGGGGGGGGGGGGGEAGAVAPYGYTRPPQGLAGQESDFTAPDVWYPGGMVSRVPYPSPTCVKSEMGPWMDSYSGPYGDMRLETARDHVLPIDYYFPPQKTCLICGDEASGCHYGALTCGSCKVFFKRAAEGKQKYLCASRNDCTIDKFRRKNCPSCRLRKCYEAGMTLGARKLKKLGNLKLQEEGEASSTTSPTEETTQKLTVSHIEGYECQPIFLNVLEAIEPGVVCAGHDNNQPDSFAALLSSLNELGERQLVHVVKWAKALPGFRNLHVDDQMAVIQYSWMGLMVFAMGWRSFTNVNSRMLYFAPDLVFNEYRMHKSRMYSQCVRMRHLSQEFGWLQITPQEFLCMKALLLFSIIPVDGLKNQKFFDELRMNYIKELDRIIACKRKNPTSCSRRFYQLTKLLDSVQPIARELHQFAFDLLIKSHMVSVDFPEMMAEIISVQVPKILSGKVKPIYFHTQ
T2 sequence (P04150 whole entry): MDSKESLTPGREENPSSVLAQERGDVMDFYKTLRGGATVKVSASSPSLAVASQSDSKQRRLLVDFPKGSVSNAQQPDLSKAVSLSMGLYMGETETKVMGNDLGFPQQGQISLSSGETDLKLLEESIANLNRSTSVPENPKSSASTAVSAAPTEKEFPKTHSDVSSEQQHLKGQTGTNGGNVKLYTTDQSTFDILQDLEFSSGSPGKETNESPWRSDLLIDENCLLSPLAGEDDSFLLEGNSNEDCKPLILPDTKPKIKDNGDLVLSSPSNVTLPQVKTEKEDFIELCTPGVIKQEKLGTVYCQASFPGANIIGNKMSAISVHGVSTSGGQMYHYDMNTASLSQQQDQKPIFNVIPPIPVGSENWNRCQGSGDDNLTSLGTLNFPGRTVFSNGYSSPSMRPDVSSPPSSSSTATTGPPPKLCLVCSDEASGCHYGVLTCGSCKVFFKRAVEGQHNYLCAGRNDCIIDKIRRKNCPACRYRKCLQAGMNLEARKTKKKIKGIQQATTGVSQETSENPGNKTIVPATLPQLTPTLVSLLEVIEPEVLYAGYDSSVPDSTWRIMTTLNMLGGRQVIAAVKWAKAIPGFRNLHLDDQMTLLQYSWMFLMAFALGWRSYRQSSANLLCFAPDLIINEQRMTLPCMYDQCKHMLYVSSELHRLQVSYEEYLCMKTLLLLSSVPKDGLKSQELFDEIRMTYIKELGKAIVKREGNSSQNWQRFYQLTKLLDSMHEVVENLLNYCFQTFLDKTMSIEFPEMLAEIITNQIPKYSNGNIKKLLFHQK
T3 sequence (P03372 whole entry): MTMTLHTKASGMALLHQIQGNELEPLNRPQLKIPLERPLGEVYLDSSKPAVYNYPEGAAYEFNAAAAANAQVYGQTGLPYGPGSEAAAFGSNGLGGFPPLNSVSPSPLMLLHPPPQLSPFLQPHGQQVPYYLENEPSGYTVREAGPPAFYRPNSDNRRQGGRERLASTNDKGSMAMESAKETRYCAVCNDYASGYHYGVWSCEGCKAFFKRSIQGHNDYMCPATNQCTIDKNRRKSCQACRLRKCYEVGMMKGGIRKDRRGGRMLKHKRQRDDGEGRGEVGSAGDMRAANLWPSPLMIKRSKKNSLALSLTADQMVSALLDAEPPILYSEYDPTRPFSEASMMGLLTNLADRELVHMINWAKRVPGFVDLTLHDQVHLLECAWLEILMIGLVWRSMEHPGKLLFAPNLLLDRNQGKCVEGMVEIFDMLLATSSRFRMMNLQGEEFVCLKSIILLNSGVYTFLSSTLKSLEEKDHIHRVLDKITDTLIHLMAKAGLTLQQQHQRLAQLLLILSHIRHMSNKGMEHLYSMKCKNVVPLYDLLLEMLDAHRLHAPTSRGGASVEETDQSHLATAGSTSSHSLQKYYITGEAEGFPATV

C=CCNC1=C2C[C@@H](C)C[C@H](OC)[C@H](O)[C@@H](C)/C=C(\C)[C@H](OC(N)=O)[C@@H](OC)/C=C\C=C(/C)C(=O)NC(=CC1=O)C2=O [17-AAG, reference compound]
endogenous AR nuclear expression (endogenous AR [1]): a decrease in nuclear AR expression was observed

CCOc1ccc(-c2cnc3n2CCC3)cc1 [SID 14730725, 3-(4-Ethoxy-phenyl)-6,7-dihydro-5H-pyrrolo[1,2-a]imidazole]
blocking AR nuclear localization, dependence on androgen level (GFP-AR [2]; absence or very low levels of androgens): more effective in blocking AR nuclear localization in the absence or in the presence of very low levels of androgens
GFP-AR nuclear localization (GFP-AR [2]; transfected C4-2 cells, complete RPMI with 10% FBS, overnight treatment): effectively inhibited
body weight of injected mice ([3]; 50 mg/Kg s.c. every other day): did not affect the body weight
growth of C4-2 xenograft tumor ([3]; 50 mg/Kg s.c. every other day for 2 weeks, castrated SCID mice): able to inhibit the growth of a C4-2 xenograft tumor with statistical significance
localization of GFP-GR (GFP-GR): no effect
cytotoxicity (C4-2 cells): little or no cytotoxicity
localization of GFP-ER (GFP-ER): no effect
endogenous AR nuclear localization (endogenous AR [4]): inhibited
cytotoxicity (PC3 cells): little or no cytotoxicity

CC(=O)O[C@@]12CO[C@@H]1C[C@H](O)[C@@]1(C)C(=O)[C@H](O)C3=C(C)[C@@H](OC(=O)[C@H](O)[C@@H](NC(=O)OC(C)(C)C)c4ccccc4)C[C@@](O)([C@@H](OC(=O)c4ccccc4)[C@H]21)C3(C)C [docetaxel]
AR nuclear localization in castration-resistant C4-2 cells (GFP-AR [5]): no significant effect
AR nuclear translocation (AR): can inhibit androgen-dependent AR nuclear translocation

C[C@@H]1CC2=CC(=O)CC[C@@H]2[C@H]2CC[C@@]3(C)[C@@H](CC[C@]3(C)O)[C@@H]21 [mibolerone]
GFP-AR localization (GFP-AR [2]; C4-2 cells): induced complete nuclear localization
GFP-AR localization (GFP-AR [2]; LNCaP cells): induced complete nuclear localization
GFP-AR localization (GFP-AR [2]; PC3 cells): induced complete nuclear localization

C[C@@H]1C[C@H]2O[C@@H]2/C=C\C=C\C(=O)Cc2c(Cl)c(O)cc(O)c2C(=O)O1 [radicicol]
nuclear localization of GFP-AR (GFP-AR [2]; C4-2 cells, data not shown): prevented
